# Molecular target: T1, human CTPS1 (Homo sapiens, UniProt P17812)
# T1 construct: purchased Proteros biostructures GmbH
# T1 sequence (P17812 1-591): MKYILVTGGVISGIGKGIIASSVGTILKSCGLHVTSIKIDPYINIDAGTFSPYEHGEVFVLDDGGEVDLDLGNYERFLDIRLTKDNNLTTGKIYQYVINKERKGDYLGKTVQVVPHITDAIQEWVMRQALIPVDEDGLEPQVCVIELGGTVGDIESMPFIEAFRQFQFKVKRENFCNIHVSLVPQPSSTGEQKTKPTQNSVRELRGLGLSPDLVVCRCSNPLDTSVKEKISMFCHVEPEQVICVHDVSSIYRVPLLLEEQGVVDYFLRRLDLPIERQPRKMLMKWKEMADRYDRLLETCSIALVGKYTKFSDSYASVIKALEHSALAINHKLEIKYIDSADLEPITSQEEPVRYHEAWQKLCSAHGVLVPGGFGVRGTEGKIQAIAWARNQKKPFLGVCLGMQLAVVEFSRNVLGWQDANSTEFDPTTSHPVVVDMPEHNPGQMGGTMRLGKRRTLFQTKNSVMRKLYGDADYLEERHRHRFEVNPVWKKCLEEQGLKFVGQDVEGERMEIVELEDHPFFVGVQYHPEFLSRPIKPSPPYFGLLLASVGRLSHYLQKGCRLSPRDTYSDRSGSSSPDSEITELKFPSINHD
# Assay: Human CTPS1 enzyme inhibition (ADP-Glo Max assay)
# Type: biochemical
# Conditions: Table 18, additional potency data, 25° C., read-out: CTPS1 (Human CTPS1 Enzyme Inhibition data grouped by potency range)
# Outline: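 ADP-Glo Max luminescence detection of ATP-to-ADP conversion by the enzyme, in 50 mM Tris, 10 mM MgCl2, 0.01% Tween-20, pH 8.0, with 2 mM L-cysteine added fresh. Enzyme preincubated with compound 10 minutes at 25° C. Percentage inhibition calculated per compound concentration.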
row,IC50 [nM],SMILES
1,100 to 1000,"COC(C)(C)c1cncc(-c2ccc(NC(=O)C(C)(C)c3csc(NS(=O)(=O)C4CC4)n3)c(F)c2)n1 [T353, 2-(2-(cyclopropanesulfonamido)thiazol-4-yl)-N-(2-fluoro-4-(6-(2-methoxypropan-2-yl)pyrazin-2-yl)phenyl)-2-methylpropanamide]"
2,100 to 1000,"Cc1sc(NS(=O)(=O)C2CC2)nc1C(C)(C)C(=O)Nc1ccc(-c2cncc(C(F)(F)F)n2)cc1F [T354, 2-(2-(cyclopropanesulfonamido)-5-methylthiazol-4-yl)-N-(2-fluoro-4-(6-(trifluoromethyl)pyrazin-2-yl)phenyl)-2-methylpropanamide]"
3,1000 to 10000,"CC(C)(C(=O)Nc1ccc(-c2cncc(C#N)n2)cc1F)c1csc(NS(=O)(=O)C2CC2)n1 [T355, N-(4-(6-cyanopyrazin-2-yl)-2-fluorophenyl)-2-(2-(cyclopropanesulfonamido)thiazol-4-yl)-2-methylpropanamide]"
4,< 100,"CCc1cncc(-c2ccc(NC(=O)C(C)(C)c3csc(NS(=O)(=O)C4CC4)n3)c(F)c2)n1 [T356, 2-(2-(cyclopropanesulfonamido)thiazol-4-yl)-N-(4-(6-ethylpyrazin-2-yl)-2-fluorophenyl)-2-methylpropanamide]"
5,< 100,"CC(C)Oc1cncc(-c2ccc(NC(=O)C(C)(C)c3csc(NS(=O)(=O)C4CC4)n3)c(F)c2)n1 [T357, 2-(2-(cyclopropanesulfonamido)thiazol-4-yl)-N-(2-fluoro-4-(6-isopropoxypyrazin-2-yl)phenyl)-2-methylpropanamide]"
6,< 100,"CCOc1cncc(-c2ccc(NC(=O)C(C)(C)c3nc(NS(=O)(=O)C4CC4)sc3C)c(F)c2)n1 [T358, 2-(2-(cyclopropanesulfonamido)-5-methylthiazol-4-yl)-N-(4-(6-ethoxypyrazin-2-yl)-2-fluorophenyl)-2-methylpropanamide]"
7,< 100,"CC(C)c1cc(-c2cncc(Cl)c2)ccc1NC(=O)C(C)(C)c1csc(NS(=O)(=O)C2CC2)n1 [T359, N-(4-(5-chloropyridin-3-yl)-2-isopropylphenyl)-2-(2-(cyclopropanesulfonamido)thiazol-4-yl)-2-methylpropanamide]"
8,100 to 1000,"CC(C)c1cc(-c2cncc(C#N)c2)ccc1NC(=O)C(C)(C)c1csc(NS(=O)(=O)C2CC2)n1 [T360, N-(4-(5-cyanopyridin-3-yl)-2-isopropylphenyl)-2-(2-(cyclopropanesulfonamido)thiazol-4-yl)-2-methylpropanamide]"
9,100 to 1000,"CC(C)c1cc(-c2cncc(C(F)(F)F)n2)ccc1NC(=O)C(C)(C)c1csc(NS(=O)(=O)C2CC2)n1 [T361, 2-(2-(cyclopropanesulfonamido)thiazol-4-yl)-N-(2-isopropyl-4-(6-(trifluoromethyl)pyrazin-2-yl)phenyl)-2-methylpropanamide]"
10,< 100,"CCOc1cncc(-c2ccc(NC(=O)C(C)(C)c3csc(NS(=O)(=O)C4CC4)n3)c(C(C)C)c2)n1 [T362, 2-(2-(cyclopropanesulfonamido)thiazol-4-yl)-N-(4-(6-ethoxypyrazin-2-yl)-2-isopropylphenyl)-2-methylpropanamide]"
11,< 100,"Cc1c(NC(=O)C(C)(C)c2csc(NS(=O)(=O)C3CC3)n2)ccc(-c2cncc(Cl)c2)c1F [T363, N-(4-(5-chloropyridin-3-yl)-3-fluoro-2-methylphenyl)-2-(2-(cyclopropanesulfonamido)thiazol-4-yl)-2-methylpropanamide]"
12,100 to 1000,"Cc1cc(-c2cncc(Cl)c2)c(F)cc1NC(=O)C(C)(C)c1csc(NS(=O)(=O)C2CC2)n1 [T364, N-(4-(5-chloropyridin-3-yl)-5-fluoro-2-methylphenyl)-2-(2-(cyclopropanesulfonamido)thiazol-4-yl)-2-methylpropanamide]"
13,< 100,"Cc1c(NC(=O)C(C)(C)c2csc(NS(=O)(=O)C3CC3)n2)ccc(-c2cncc(Cl)c2)c1C [T365, N-(4-(5-chloropyridin-3-yl)-2,3-dimethylphenyl)-2-(2-(cyclopropanesulfonamido)thiazol-4-yl)-2-methylpropanamide]"
14,100 to 1000,"Cc1cc(-c2cncc(Cl)c2)c(C)cc1NC(=O)C(C)(C)c1csc(NS(=O)(=O)C2CC2)n1 [T366, N-(4-(5-chloropyridin-3-yl)-2,5-dimethylphenyl)-2-(2-(cyclopropanesulfonamido)thiazol-4-yl)-2-methylpropanamide]"
15,< 100,"Cc1c(NC(=O)C(C)(C)c2csc(NS(=O)(=O)C3CC3)n2)ccc(-c2cncc(C#N)c2)c1F [T367, N-(4-(5-cyanopyridin-3-yl)-3-fluoro-2-methylphenyl)-2-(2-(cyclopropanesulfonamido)thiazol-4-yl)-2-methylpropanamide]"
16,< 100,"Cc1cc(-c2cncc(C(F)(F)F)n2)ccc1NC(=O)C(C)(C)c1csc(NS(=O)(=O)C2CC2)n1 [T368, 2-(2-(cyclopropanesulfonamido)thiazol-4-yl)-2-methyl-N-(2-methyl-4-(6-(trifluoromethyl)pyrazin-2-yl)phenyl)propanamide]"
17,100 to 1000,"COc1cc(-c2cncc(Cl)c2)c(F)cc1NC(=O)C(C)(C)c1csc(NS(=O)(=O)C2CC2)n1 [T369, N-(4-(5-chloropyridin-3-yl)-5-fluoro-2-methoxyphenyl)-2-(2-(cyclopropanesulfonamido)thiazol-4-yl)-2-methylpropanamide]"
18,< 100,"CCOc1cncc(-c2ccc(NC(=O)C(C)(C)c3csc(NS(=O)(=O)C4CC4)n3)cc2C)n1 [T371, 2-(2-(cyclopropanesulfonamido)thiazol-4-yl)-N-(4-(6-ethoxypyrazin-2-yl)-3-methylphenyl)-2-methylpropanamide]"
19,100 to 1000,"CCOc1cc(NC(=O)C(C)(C)c2csc(NS(=O)(=O)C3CC3)n2)ccc1-c1cncc(Cl)c1 [T372, N-(4-(5-chloropyridin-3-yl)-3-ethoxyphenyl)-2-(2-(cyclopropanesulfonamido)thiazol-4-yl)-2-methylpropanamide]"
20,< 100,"O=C(Nc1ccc(-c2cncc(Cl)c2)cc1)C1(c2csc(NS(=O)(=O)C3CC3)n2)CC1 [T373, N-(4-(5-chloropyridin-3-yl)phenyl)-1-(2-(cyclopropanesulfonamido)thiazol-4-yl)cyclopropane-1-carboxamide]"
21,1000 to 10000,"Cc1sc(NS(=O)(=O)C2CC2)nc1C(C)(C)C(=O)Nc1ccc(-c2cncc(C#N)c2)cc1 [T374, N-(4-(5-cyanopyridin-3-yl)phenyl)-2-(2-(cyclopropanesulfonamido)-5-methylthiazol-4-yl)-2-methylpropanamide]"
22,100 to 1000,"COC(C)(C)c1cncc(-c2ccc(NC(=O)C(C)(C)c3csc(NS(=O)(=O)C4CC4)n3)cc2)n1 [T375, 2-(2-(cyclopropanesulfonamido)thiazol-4-yl)-N-(4-(6-(2-methoxypropan-2-yl)pyrazin-2-yl)phenyl)-2-methylpropanamide]"
23,100 to 1000,"CCOc1cncc(-c2ccc(NC(=O)C(C)(C)c3nc(NS(=O)(=O)C4CC4)sc3Cl)cc2)n1 [T376, 2-(5-chloro-2-(cyclopropanesulfonamido)thiazol-4-yl)-N-(4-(6-ethoxypyrazin-2-yl)phenyl)-2-methylpropanamide]"
24,100 to 1000,"CCOc1cncc(-c2ccc(NC(=O)C(C)(C)c3nc(NS(=O)(=O)C4CC4)sc3OC)cc2)n1 [T377, 2-(2-(cyclopropanesulfonamido)-5-methoxythiazol-4-yl)-N-(4-(6-ethoxypyrazin-2-yl)phenyl)-2-methylpropanamide]"
25,1000 to 10000,"CC(C)(C(=O)Nc1ccc(-c2cncc(OCC3CCCC3)n2)cc1)c1csc(NS(=O)(=O)C2CC2)n1 [T378, N-(4-(6-(cyclopentylmethoxy)pyrazin-2-yl)phenyl)-2-(2-(cyclopropanesulfonamido)thiazol-4-yl)-2-methylpropanamide]"
26,1000 to 10000,"CC(C)(C(=O)Nc1ccc(-c2cncc(O)n2)cc1)c1csc(NS(=O)(=O)C2CC2)n1 [T379, 2-(2-(cyclopropanesulfonamido)thiazol-4-yl)-N-(4-(6-hydroxypyrazin-2-yl)phenyl)-2-methylpropanamide]"
27,< 100,"CCS(=O)(=O)Nc1nc(C(C)(C)C(=O)Nc2ccc(-c3cncc(C(F)(F)F)c3)cn2)cs1 [T380, 2-(2-(ethylsulfonamido)thiazol-4-yl)-2-methyl-N-(5′-(trifluoromethyl)-[3,3′-bipyridin]-6-yl)propanamide]"
28,< 100,"CCS(=O)(=O)Nc1nc(C(C)(C)C(=O)Nc2ccc(-c3cncc(C(F)(F)F)n3)cn2)cs1 [T381, 2-(2-(ethylsulfonamido)thiazol-4-yl)-2-methyl-N-(5-(6-(trifluoromethyl)pyrazin-2-yl)pyridin-2-yl)propanamide]"
29,< 100,"CCOc1cncc(-c2ccc(NC(=O)C(C)(C)c3csc(NS(=O)(=O)CC)n3)nc2)n1 [T382, N-(5-(6-ethoxypyrazin-2-yl)pyridin-2-yl)-2-(2-(ethylsulfonamido)thiazol-4-yl)-2-methylpropanamide]"
30,< 100,"CCS(=O)(=O)Nc1nc(C(C)(C)C(=O)Nc2ccc(-c3cncc(OC(C)C)n3)cc2F)cs1 [T383, 2-(2-(ethylsulfonamido)thiazol-4-yl)-N-(2-fluoro-4-(6-isopropoxypyrazin-2-yl)phenyl)-2-methylpropanamide]"
